Test results as given in patent US20220098237A1, “COMPOUND, SYNTHESIS INTERMEDIATE, USE, PHARMACEUTICAL COMPOSITION AND NEUROMODULATORY THERAPEUTIC METHOD” (Remer Consultores Assessoria Empresarial Ltda, priority 2017, published 2022).
Values joined by “and” are separate entries in the source; they are usually repeats but may differ in a detail not shown here. Equal entries are not always repeated. “Also recorded” adds a separate entry of the source. Peptide text beside a SMILES is read from it.

How the values were obtained:
CB1 receptor = test: Screening with anti-CB1 antibodies sensitive to activation/conformational changes, ELISA on Striatum membranes; format: binding; settings: ligands 1 μM; Assay 1-5
Description: Antibodies sensitive to CB1 receptor activation were generated and characterized by their specificities. For screening compounds, Striatum membranes (5 μg per well) were plated on NUNC-Immuno 96-well plates (Nalge-Nunc) and dried at room temperature. Membranes were washed with PBS (phosphate buffered saline) and incubated with or without different ligands (1 μM) and the extent of receptor recognition by the antibodies was measured by ELISA. The results of the tests are shown in Table 5, which indicates the % binding to the CB1 receptor in relation to control: […]

pilocarpine model = test: Pilocarpine model, oral pre-treatment (salivation, first signal, seizure, death/survival); format: in vivo, Mus musculus; design: time of occurrence of the first seizure: unit not given here
Description: In some examples, the neuromodulatory/neuroprotective/anticonvulsive effects of the composition of the invention have been evaluated in vivo by oral administration to animals. The pharmaceutical composition of the invention was administered to mammals (Mus musculus or mouse) with an oral dose of treatment with different embodiments of the compound of the invention, compared to other compounds or to saline control. In these experiments, the test compounds were administered orally 10 minutes prior to (intraperitoneal) administration of pilocarpine. Pilocarpine hydrochloride (320 mg/kg, Merck), dissolved in 0.9% sterile saline, was given intraperitoneally for induction of SE (status epileticus) (Turski et al., 1983). In the Turski model, the neurotoxic effects begin about 15-25 minutes after the injection of Pilo, with the occurrence of motor and limbic seizures, the animals evolving to a state of continuous (clonic) seizures that characterize SE Sanabria and Cavalheiro, 2000).
In this embodiment, the anticonvulsive effect of the composition of the invention prepared according to Example 2 was evaluated by prior administration of the inventive composition and subsequent administration of pilocarpine to animals. FIG. 4 presents the results of the pilocarpine model, indicating the time for the first salivation with the administration of control, cannabidiol (30 mg/kg), the compound of the invention R1-N-AA1-K-AA2-R2, in which embodiment is the tetrapeptide of SEQ ID No. 1 (500 μg/kg).
In this embodiment, the neuromodulatory effect of the composition of the invention prepared according to Example 2 was evaluated by prior administration of the inventive composition and subsequent administration of pilocarpine to animals. Other test compounds were also evaluated as described below. Administration of pilocarpine leads to severe brain injury, neurotoxicity and usually culminates in the death of the animals. This substance was used in the experiments described below but its harmful neuronal/encephalic effects were inhibited by the prior administration of the composition of the present invention: the vast majority of the animals subjected to these experiments had no symptoms related to brain lesions and survived without apparent damage, in contrast to groups of animals treated with other known substances.
The composition of the invention was prepared according to Example 2 with due concentration correction, for comparison of the effects of SEQ ID No. 1, SEQ ID No. 7 and NFK, such compounds having been previously administered to the animal groups.
In this embodiment, the anticonvulsant effect of different embodiments of the compound of the invention with the structure represented by SEQ ID No. 1, SEQ ID No. 7, NFK, FKF, FKL, as well as the NF, FK, KF and KL dipeptides were evaluated in the pilocarpine model.

[1] = tested on: experimental autoimmune encephalomyelitis (EAE); test: EAE model of Multiple Sclerosis, MOG induction, Endopeptidase 24.15 knockout mice; format: in vivo; settings: 24.15 knock out mice, FIG. 25
From the text: In this embodiment, transgenic mice knockout of the Endopeptidase 24.15 gene were challenged with MOG (Myelin Oligodendrocyte Glycoprotein), with administration of the compound of the invention SEQ ID No. 1 or saline as a control. After the introduction of the disease, a daily evaluation of the symptoms was made, according to Table 11 below.

human CB2 receptor = molecular target: T1, human CB2 receptor (Homo sapiens, UniProt P34972); test: In vitro radioligand binding, [3H] WIN55212-2, recombinant CHO cells; design: % of inhibition of binding of specific control, 1st/2nd measurement: unit of the concentration uncertain; settings: for % of inhibition of binding of specific control, 1st/2nd measurement: radioligand agonist WIN 55212-2
T1 construct: expressed in transfected cells; host or cells: CHO cells
T1 sequence (P34972 whole entry): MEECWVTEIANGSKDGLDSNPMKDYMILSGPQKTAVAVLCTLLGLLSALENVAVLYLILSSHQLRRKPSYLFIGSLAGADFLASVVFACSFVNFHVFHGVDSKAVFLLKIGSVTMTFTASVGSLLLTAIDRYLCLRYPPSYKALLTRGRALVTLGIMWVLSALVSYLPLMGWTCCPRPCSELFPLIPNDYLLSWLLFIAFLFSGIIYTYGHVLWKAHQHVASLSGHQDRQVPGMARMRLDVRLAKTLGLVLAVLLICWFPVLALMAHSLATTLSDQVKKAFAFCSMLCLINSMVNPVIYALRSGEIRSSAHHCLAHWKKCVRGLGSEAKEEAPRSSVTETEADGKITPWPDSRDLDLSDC
Description: In vitro binding assays were performed using recombinant CHO cells expressing human CB2 receptor and [3H]

[2] = Stability tests under extreme conditions (freezing 24 hours; heating at 100° C. for 10 minutes), HPLC; format: physicochemical
From the text: In the vertical axis the area of the HPLC peak is shown. […] Statistical significance data are also shown, the asterisks indicating: (*) P<0.05 vs Control (***) P<0.005 vs Control; (****) P<0.0001 vs Control.

human CB1 receptor = molecular target: T2, human CB1 receptor (Homo sapiens, UniProt P21554); test: In vitro radioligand binding, [3H] CP 55940, recombinant CHO cells; settings: radioligand agonist CP55940, read-out: % of inhibition of binding of specific control, Mean value
T2 construct: expressed in transfected cells; host or cells: CHO cells
T2 sequence (P21554 whole entry): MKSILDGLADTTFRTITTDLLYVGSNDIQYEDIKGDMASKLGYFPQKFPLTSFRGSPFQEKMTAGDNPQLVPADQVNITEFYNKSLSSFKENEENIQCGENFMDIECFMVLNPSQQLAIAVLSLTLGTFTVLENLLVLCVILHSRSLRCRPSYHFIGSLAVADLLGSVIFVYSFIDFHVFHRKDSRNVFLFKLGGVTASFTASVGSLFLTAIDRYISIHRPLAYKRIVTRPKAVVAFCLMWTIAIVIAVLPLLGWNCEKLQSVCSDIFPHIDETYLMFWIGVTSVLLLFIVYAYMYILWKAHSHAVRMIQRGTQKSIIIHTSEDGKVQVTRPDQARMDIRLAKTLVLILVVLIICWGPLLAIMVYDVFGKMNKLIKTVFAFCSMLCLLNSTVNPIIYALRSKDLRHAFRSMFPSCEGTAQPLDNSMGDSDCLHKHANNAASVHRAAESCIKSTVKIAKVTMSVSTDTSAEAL
Description: In vitro binding assays were performed using recombinant CHO cells expressing the human CB1 receptor and the [3H]
Results are expressed as the percentage of binding of the specific control according to formula: […]
And the percentual inhibition of binding of specific control obtained in the presence of the compound of the invention is:
IC50 values (concentration that causes half of maximal inhibition of specific control binding) and Hill (nH) coefficients were determined by nonlinear regression of the competition curves generated with the mean values of the replicates using the Hill equation:
Where Y=specific binding, A=asymptotic left of curve, D=asymptotic right of curve, C=compound concentration, C50=IC50 and nH=curve coefficient/slope factor. This analysis was performed using the Hill software validated by comparison with data generated by Sigmaplot 4.0 software. Inhibition constants (Ki) were calculated using the equation of Chen Prusoff:
Where L=concentration of the radioligand in the assay; KD=affinity of the radioligand for the receptor. A graph is used to determine the KD.

pain threshold = test: Pain threshold model, pressure apparatus on right paw; format: in vivo, rats; settings: for pain threshold, force: oral, 0.5 to 0.25 mg/kg, individual animals
Description: The compounds of the present invention have also been tested as analgesics or neuropathic pain modulators. To that end, the compounds PVNFKF, PVNFK, VNFKF, SEQ ID No. 1 were tested in the pain threshold model. The pain threshold was measured using a pressure apparatus (Ugo Basile, Italy), essentially as described (Randall and Selitto, 1957). Briefly, a force of increasing magnitude (16 g/s) was applied to the back of the right paw of rats. When animals react by kicking, the force in grams required to induce this response is the threshold of pain. Antinoniceptive activity was expressed as the increase in pain threshold compared to control animals.
The compounds of the invention were administered orally to the animals at doses of 0.5 to 0.25 mg/kg and saline was used as a control.

[3] = FIG. 6, 500 μg/kg before pilocarpine

NCCCCC(NC(=O)C(Cc1ccccc1)NC(=O)C(N)CC(N)=O)C(=O)NC(Cc1ccccc1)C(=O)O (stereo not shown) [SEQ ID No. 1] (H-NFKF-OH; configuration not given here)
% binding to the CB1 receptor in relation to control (CB1 receptor): 90.27% and 84.41% and 90.19% and 77.88% and 65.39% | time for first salivation vs control (significance) (pilocarpine model; FIG. 4, cannabidiol 30 mg/kg, SEQ ID No. 1 500 μg/kg): does not present statistical significance | number of animals that died (pilocarpine model; [3]): two | remaining animals alive for more than a week (pilocarpine model; [3]): 3 animals | prostration and nasal bleeding (pilocarpine model; SEQ ID No. 1 500 μg/kg, cannabidiol 30 mg/kg): no occurrence of prostration or nasal bleeding; also recorded: non-occurrence of prostration or nasal bleeding | time of occurrence of the first salivation (pilocarpine model; Table 1, oral, 10 minutes prior to pilocarpine 320 mg/kg i.p., individual animals): 3.2 min and 1.83 min and 1.97 min and 2.73 min and 1.58 min | time of occurrence of the first signal (pilocarpine model; Table 2, oral, 10 minutes prior to pilocarpine 320 mg/kg i.p., individual animals): 12.33 min and 8.43 min and 10.23 min and 13.53 min and 9.9 min | time of occurrence of the first seizure (pilocarpine model; Table 3, oral, 10 minutes prior to pilocarpine 320 mg/kg i.p., individual animals): 17.88 and 15.17 and 19.95 and 15.18 and 16 | time of death occurrence (pilocarpine model; Table 4, oral, 10 minutes prior to pilocarpine 320 mg/kg i.p., individual animals): 18.92 min and 20 min and 15.18 min and 10.87 min | clinical symptoms (Clinical Score) [1]: impressive reduction of clinical symptoms | % of inhibition of binding of specific control, 1st/2nd measurement (human CB2 receptor; 1 (unit uncertain)): 3.5% and 0.3% | % of inhibition of binding of specific control, 1st/2nd measurement (human CB2 receptor; 10 (unit uncertain)): 13.1% | modulation in binding of the radioligand (in words) (human CB2 receptor; conditions tested): did not provide significant modulation | area of the HPLC peak, control ([2]; control sample, n=2): 120 | area of the HPLC peak after freezing ([2]; freezing for 24 h): 100 | part lost or degraded by freezing ([2]; freezing for 24 h): 16.7% | degradation upon heating (in words) ([2]; heating at 100° C. for 10 minutes): did not suffer statistically significant degradation | inhibition at 1 µM (human CB1 receptor; 1 µM): -74.6% | inhibition at 10 µM (human CB1 receptor; 10 µM): -9.9% | pain threshold, force (pain threshold; After 3 h): 80 grams (2×) and 70 grams (3×) and 75 grams | pain threshold, force (pain threshold; Immediate): 70 grams and 75 grams (3×) and 80 grams and 60 grams | greater pain threshold compared to PVNFKF (pain threshold; after 3 h): 50.1%
